Measurements: patent US11548884B2, “Cyclic amidine compounds for the treatment of autoimmune disease” (Hoffmann-La Roche Inc., priority 2018, dated 2023)
pIC50: −log10 of the molar value.

Molecular target: T1, human TLR9 (Homo sapiens, UniProt Q9NR96)
T1 sequence (Q9NR96 26-1032): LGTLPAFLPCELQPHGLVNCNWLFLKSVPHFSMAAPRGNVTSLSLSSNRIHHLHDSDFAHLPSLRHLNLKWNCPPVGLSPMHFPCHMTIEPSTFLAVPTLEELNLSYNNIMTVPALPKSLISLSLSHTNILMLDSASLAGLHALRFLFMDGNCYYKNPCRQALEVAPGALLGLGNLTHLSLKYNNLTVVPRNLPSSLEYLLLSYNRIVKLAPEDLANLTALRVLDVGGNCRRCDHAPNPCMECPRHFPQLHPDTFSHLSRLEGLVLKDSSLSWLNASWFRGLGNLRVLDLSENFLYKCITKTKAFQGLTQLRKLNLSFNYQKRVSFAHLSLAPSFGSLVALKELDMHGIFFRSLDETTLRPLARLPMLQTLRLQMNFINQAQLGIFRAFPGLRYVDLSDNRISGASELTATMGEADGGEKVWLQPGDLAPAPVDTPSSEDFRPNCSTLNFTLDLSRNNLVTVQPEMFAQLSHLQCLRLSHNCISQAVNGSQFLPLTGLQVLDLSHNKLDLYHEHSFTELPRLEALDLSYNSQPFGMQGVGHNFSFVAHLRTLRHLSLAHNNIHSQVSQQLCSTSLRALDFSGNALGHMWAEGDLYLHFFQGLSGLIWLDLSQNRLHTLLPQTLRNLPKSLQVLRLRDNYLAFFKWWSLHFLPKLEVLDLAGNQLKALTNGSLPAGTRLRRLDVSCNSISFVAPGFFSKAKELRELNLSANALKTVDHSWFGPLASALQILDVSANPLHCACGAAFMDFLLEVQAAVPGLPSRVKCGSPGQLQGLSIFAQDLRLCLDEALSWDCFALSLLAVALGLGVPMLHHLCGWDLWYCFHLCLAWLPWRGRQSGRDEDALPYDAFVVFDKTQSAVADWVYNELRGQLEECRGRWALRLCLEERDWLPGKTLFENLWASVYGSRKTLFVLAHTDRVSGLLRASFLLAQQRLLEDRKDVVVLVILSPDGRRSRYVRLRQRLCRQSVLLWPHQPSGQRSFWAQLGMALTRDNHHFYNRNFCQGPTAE
Assay: HEK293-Blue-hTLR-9 cells assay (SEAP reporter, ODN2006 stimulation)
Assay type: cell-based
Conditions: HEK293-Blue-hTLR9 cells, ODN2006 ligand, 20 h incubation
Protocol: The following tests were carried out in order to determine the activity of the compounds of formula (I) in HEK293-Blue-hTLR-7/8/9 cells assay.
HEK293-Blue-hTLR-9 Cells Assay:
A stable HEK293-Blue-hTLR-9 cell line was purchased from InvivoGen (Cat. #: hkb-htlr9, San Diego, Calif., USA). These cells were originally designed for studying the stimulation of human TLR9 by monitoring the activation of NF-κB. A SEAP (secreted embryonic alkaline phosphatase) reporter gene was placed under the control of the IFN-β minimal promoter fused to five NF-κB and AP-1-binding sites. The SEAP was induced by activating NF-κB and AP-1 via stimulating HEK-Blue hTLR9 cells with TLR9 ligands. Therefore the reporter expression was declined by TLR9 antagonist under the stimulation of a ligand, such as ODN2006 (Cat. #: tlrl-2006-1, Invivogen, San Diego, Calif., USA), for incubation of 20 h. The cell culture supernatant SEAP reporter activity was determined using QUANTI-Blue™ kit (Cat. #: rep-qb1, Invivogen, San Diego, Calif., USA) at a wavelength of 640 nm, a detection medium that turns purple or blue in the presence of alkaline phosphatase.
HEK293-Blue-hTLR9 cells were incubated at a density of 250,000˜450,000 cells/mL in a volume of 170 μL in a 96-well plate in Dulbecco's Modified Eagle's medium (DMEM) containing 4.5 g/L glucose, 50 U/mL penicillin, […], 2 mM L-glutamine, 10% (v/v) heat-inactivated fetal bovine serum with addition of 20 μL test compound in a serial dilution in the presence of final DMSO at 1% and 10 μL of 20 uM ODN2006 in above DMEM, perform incubation under 37° C. in a CO2 incubator for 20 h. Then 20 μL of the supernatant from each well was incubated with 180 μL Quanti-blue substrate solution at 37° C. for 2 h and the absorbance was read at 620˜655 nm using a spectrophotometer. The signalling pathway that TLR9 activation leads to downstream NF-κB activation has been widely accepted, and therefore similar reporter assay was modified for evaluating TLR9 antagonist.

pIC50 | Compound
7.30 | C[C@@H]1CN(c2ccc(C#N)c3ncccc23)C[C@H](C2=Nc3cccc(N4CCNCC4)c3CN2)O1 [Example 6, 5-[(2R,6R)-2-methyl-6-(5-piperazin-1-yl-3,4-dihydroquinazolin-2-yl)morpholin-4-yl]quinoline-8-carbonitrile]
6.99 | C[C@@H]1CN(c2ccc(C#N)c3ncccc23)C[C@H](C2=Nc3ccc(N4CCNCC4)cc3CN2)O1 [Example 7, 5-[(2R,6R)-2-methyl-6-(6-piperazin-1-yl-3,4-dihydroquinazolin-2-yl)morpholin-4-yl]quinoline-8-carbonitrile]
7.19 | C[C@@H]1CN(c2ccc(C#N)c3ncccc23)C[C@H](C2=Nc3cc(N4CCNCC4)ccc3CN2)O1 [Example 8, 5-[(2R,6R)-2-methyl-6-(7-piperazin-1-yl-3,4-dihydroquinazolin-2-yl)morpholin-4-yl]quinoline-8-carbonitrile]
7.01 | C[C@@H]1CN(c2ccc(C#N)c3ncccc23)C[C@H](C2=Nc3c(cccc3N3CCNCC3)CN2)O1 [Example 9, 5-[(2R,6R)-2-methyl-6-(8-piperazin-1-yl-3,4-dihydroquinazolin-2-yl)morpholin-4-yl]quinoline-8-carbonitrile]
7.38 | C[C@@H]1CN(c2ccc(C#N)c3ncccc23)C[C@H](C2=Nc3cccc(N4CCN(C)CC4)c3CN2)O1 [Example 12, 5-[(2R,6R)-2-methyl-6-[5-(4-methylpiperazin-1-yl)-3,4-dihydroquinazolin-2-yl]morpholin-4-yl]quinoline-8-carbonitrile]
6.50 | C[C@@H]1CN(c2ccc(C#N)c3ncccc23)C[C@H](C2=Nc3cccc(N4CCC5(CCNC5)C4)c3CN2)O1 (stereo partly drawn) [Example 13, 5-[(2R,6R)-2-[5-(2,7-diazaspiro[4.4]nonan-2-yl)-3,4-dihydroquinazolin-2-yl]-6-methyl-morpholin-4-yl]quinoline-8-carbonitrile]
7.19 | C[C@@H]1CN(c2ccc(C#N)c3ncccc23)C[C@H](C2=Nc3cccc(C4=CCNCC4)c3CCN2)O1 [Example 16, 5-[(2R,6R)-2-methyl-6-[6-(1,2,3,6-tetrahydropyridin-4-yl)-4,5-dihydro-3H-1,3-benzodiazepin-2-yl]morpholin-4-yl]quinoline-8-carbonitrile]
7.31 | C[C@@H]1CN(c2ccc(C#N)c3ncccc23)C[C@H](C2=Nc3ccc(N4CCNCC4)cc3CCN2)O1 [Example 17, 5-[(2R,6R)-2-methyl-6-(7-piperazin-1-yl-4,5-dihydro-3H-1,3-benzodiazepin-2-yl)morpholin-4-yl]quinoline-8-carbonitrile]
7.05 | C[C@@H]1CN(c2ccc(C#N)c3ncccc23)C[C@H](C2=Nc3cccc(C4CCNCC4)c3CN2)O1 [Example 18, 5-[(2R,6R)-2-methyl-6-[5-(4-piperidyl)-3,4-dihydroquinazolin-2-yl]morpholin-4-yl]quinoline-8-carbonitrile]
